Measured values as given in the METLIN SMRT retention time set (Domingo-Almenara et al. 2019).

assay: gradient 5% acetonitrile 3 min, to 50% in 2 min, to 85% in 15 min, held 3 min, 100 µL/min; conditions: column: Zorbax Extend-C18 2.1 x 50 mm; eluents: water / acetonitrile, 0.1% formic acid
In short: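 Over 3 months, pure standards in mixtures of ~100 molecules were run by HPLC coupled to a quadrupole time-of-flight mass spectrometer in positive and negative ionization mode. The column was a Zorbax Extend-C18 (2.1 × 50 mm, 1.8 μm) at 100 μL/min, eluted with water and acetonitrile each holding 0.1% formic acid, with 40 μL dead and 900 μL dwell volumes. Retention time was determined from adduct peaks chosen by software and checked manually.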

Compound | RP-LC retention time [s]
O=C(Nc1ccc(N2CCN(c3ccccc3)C2=O)nc1)c1ccc(Cl)cc1 | 1010
COc1cc(Nc2nc3ccccc3nc2NS(=O)(=O)c2ccc(NC(=O)c3ccc(C)c(OC)c3)cc2)cc(OC)c1 | 1240
CC(C)S(=O)(=O)c1ccc(CC(=O)Nc2cc(-c3cccs3)nn2CCO)cc1 | 701
Cc1ccc(CCNC(=O)c2cc3sccc3n2Cc2ccc(Cl)cc2)cc1 | 1270
CCCN1C(=O)COc2ccc(-c3noc(-c4cccc(Cl)c4)n3)cc21 | 1350
O=C1CCCc2cc(S(=O)(=O)NCCCN3CCN(c4ccccc4)CC3)ccc2N1 | 576
CCOC(=O)C1=C(C)NC(C)=C(C(=O)OCC)C1c1ccncc1 | 564
CCc1ccc(NC(=O)N(C)CCc2noc(COc3ccccc3)n2)cc1 | 962
O=C(Cn1cnc2nc(-c3cccnc3)ncc2c1=O)Nc1ccc2c(c1)OCO2 | 826
COc1ccc(-c2nc3ccccn3c2NC(=O)c2ccc(Cl)c([N+](=O)[O-])c2)cc1 | 720
CCC(=O)N1CCc2cc(N3CC(C(=O)Nc4ccc(OC)cc4C)CC3=O)ccc21 (stereo not given) | 720
CCc1ccc(NS(=O)(=O)c2c(C)nc3sc4cc(C)ccc4n3c2=O)cc1 | 1240
O=c1c2sccc2n(Cc2nc(-c3ccccc3)no2)c(=O)n1CCc1ccccc1 | 1130
COC(=O)C1C(c2ccccc2)=NN(c2ccccc2)C1C(=O)OC (stereo not given) | 1090
CCc1c(C(=O)O)nnn1-c1cccc(Br)c1 | 757
CCn1cc(CN2CCCC(Cn3cc(COC)nn3)C2)c2ccccc21 (stereo not given) | 565
O=C(Cc1ccccc1Cl)N1CCC2(C1)C(=O)Nc1ccccc12 (stereo not given) | 758
CCOc1ccc(-c2noc(Cn3c(=O)n(CC)c(=O)c4ccccc43)n2)cc1OC | 984
Cc1ccc(S(=O)(=O)c2ccccc2[N+](=O)[O-])cc1 | 874

Compound | RP-LC retention time [s]
Cc1ccc(N2CC(c3nc(-c4ccc5c(c4)nc(C)c(=O)n5C)no3)CC2=O)cc1 (stereo not given) | 837
COCCNC(=O)C1c2cc(OC)c(OC)cc2C(=O)N(C)C1c1ccc(OC)cc1 (stereo not given) | 661
CCc1cc(N2CCN(C(=O)COc3ccc(OC)cc3)CC2)nc2nnc(C)n12 | 613
Cc1nn2c(CNC(=O)c3ccsc3)c(-c3ccccc3)nc2s1 | 782
O=C(Nc1ccsn1)c1ccc(Cl)cc1Cl | 874
Cc1cc(C)cc(Oc2nccn3c(=O)n(CC(=O)Nc4ccc(F)cc4)nc23)c1 | 905
CC1(C)CC(=O)c2cn(-c3ccc(Cl)cc3)c(=O)c(C(=O)N3CCC(N4CCCCC4)CC3)c2C1 | 667
CCn1c(=O)c(N2CCN(C(=O)Nc3ccc(F)cc3F)CC2)nc2ccccc21 | 895
COC(=O)c1ccccc1NC(=O)Cn1cnc2c(sc3nc(-c4ccccc4)ccc32)c1=O | 1110
Cc1sc2ccn(CC(C)C)c(=O)c2c1C(=O)NC(C)c1ccc(F)cc1 (stereo not given) | 1030
Cc1ccc2ncn(C3CCN(S(=O)(=O)c4ccc(F)cc4F)CC3)c(=O)c2c1 | 904
CCCn1c(=O)c2cc(C(=O)Nc3cc(Cl)ccc3F)nn2c2ccccc21 | 1220
CCOc1ccccc1-c1noc(Cn2cnc3c(cnn3-c3ccccc3)c2=O)n1 | 990
Fc1ccc(-c2noc(Cc3nnc(-c4ccc(F)cc4)o3)n2)cc1 | 991
O=C(Cn1nc2c3ccccc3ncn2c1=O)Nc1ccc(F)cc1F | 668
CN1c2ccccc2C(=O)NC12CCN(C(=O)c1cccc(Cl)c1)CC2 | 756
CSc1cccc(NC(=O)Cn2c(N3CCc4ccccc4C3)nc(C)cc2=O)c1 | 840
Cn1cccc1Cc1nnc(SCC(=O)N2CCCc3ccccc32)n1C | 767
COc1ccc(-c2noc(N3CCC(N4CCCCC4)CC3)n2)cc1OC | 590

Compound | RP-LC retention time [s]
CCOC(CNCc1cc(C)c2[nH]c3ccccc3c2c1C)OCC | 812
CCc1sc(NC(=O)c2cccc(NC(=O)C(CC)CC)c2)nc1-c1ccccc1 | 1170
CC(C)(C)c1ccc(C(=O)Nc2nnc(C3CC(=O)N(c4ccc(F)cc4)C3)o2)cc1 (stereo not given) | 872
Cc1ccc(-c2noc(-c3nn(CC(=O)NC(C)C)c4ccccc34)n2)cc1 | 1080
COc1ccc(CN2CC(C(=O)N3CCCN(c4cc(=O)n(C)c(=O)n4C)CC3)CC2=O)cc1 (stereo not given) | 629
COc1ccc(-c2[nH]c3ccccc3c2C(C[N+](=O)[O-])c2cccs2)cc1OC (stereo not given) | 960
COCC(=O)NC1CCC12CCN(C(=O)C1CCC1)CC2 (stereo not given) | 661
CCn1cc(S(=O)(=O)NCc2ccccc2)c2cccnc21 | 804
CCOCCn1c(-c2ccccc2Cl)nc2ccccc21 | 707
COC(=O)c1ccc(OC(=O)N(C)c2ccccc2)cc1 | 879
CCN(CC)CC(C)(C)C(=O)/C=C/c1ccc(C)cc1 | 684
Cc1cc(C)cc(Nc2c(-c3ccc(N(C)C)cc3)nc3cnccn23)c1 | 921
COc1ccc(OC)c(NC(=O)CN2CCc3[nH]c4c(C)cc(F)cc4c(=O)c3C2)c1 | 640
CCOc1ccc(-c2nc3ncccn3c2NCc2ccc(C)cc2)cc1 | 800
CC1=NS(=O)(=O)N(Cc2ccccc2)C=C1C(=O)OCc1cc(F)ccc1F | 1080
COc1ccc(CNC(=O)Cn2nc(C)c3sc(-c4ccccc4)nc3c2=O)cc1 | 846
COCCn1cc2c3c(cccc31)CN(C(=O)Nc1ccc(C)cc1C)CC2 | 970
O=C(CCl)NC1(C(=O)O)CCCC1 | 661

The next lines start with the values.

RP-LC retention time [s] | Compound
716 | O=C(c1ccccn1)N1CCC2(CC1)NC(=O)N(Cc1ccccc1Cl)C2=O
644 | CC(C(=O)NCc1ccco1)C1CCOCC1 (stereo not given)
738 | Cc1nc(C2CCOCC2)n(C2CCN(S(=O)(=O)c3cccc(Cl)c3)C2)n1 (stereo not given)
749 | N#Cc1ccsc1NC(=O)c1ccc(S(=O)(=O)N2CCOCC2)cc1
758 | O=C(NCC1CC1)C1CCN(C(=O)c2ncn3c2COC(c2ccc(Cl)cc2)C3)CC1 (stereo not given)
896 | Cc1nn(C)c(C)c1S(=O)(=O)N1CCC(OCCOCc2ccccc2)CC1
563 | O=C(NCCN1CCc2ccccc2C1)C1CCN(c2nnc3ccccn23)CC1
683 | O=C(C1CCN(c2cnn(Cc3ccccc3)c(=O)c2)C1)N1CCCC1 (stereo not given)
592 | COCCCNC(=O)C1CCCN(c2nccc(C)n2)C1 (stereo not given)
772 | CCCN1C(=O)c2cccnc2Sc2cc(C(=O)N3CCCCC3)ccc21
604 | O=C(COc1ccc(F)c(F)c1)N1CCC(Nc2cccnc2)C1 (stereo not given)
1030 | O=C(Nc1cccc(C(F)(F)F)c1)N(Cc1ccsc1)C1CC1
734 | CCc1cc(C(=O)N2CCN(CC(C)C)CC2)nc2cc(-c3ccco3)nn12
568 | CNC(=O)c1cc(NC)nc2c(Cl)cccc12
816 | Cc1cc2c(cc1S(=O)(=O)N1CCCC1C(=O)NCCCc1ccccc1)OCC(=O)N2 (stereo not given)
883 | O=C(CSCc1nc2cccnc2n1C1CCCCC1)NCCc1ccco1
595 | Cn1cc(CCN2CCC(C(=O)N3CCCCCC3)CC2)c2cccnc21

RP-LC retention time [s] | Compound
1300 | COc1nc2ccccc2nc1N1CCCC(C(=O)Nc2cccc(Br)c2)C1 (stereo not given)
944 | COc1cccc(-c2nc(-c3ccnc(N4CCOCC4)c3)no2)c1
742 | CCc1ccc(NC(=O)Cn2c(C(C)C)nc3cc4c(cc32)OCCO4)cc1
842 | Cc1ccc(C(=O)NCc2noc(C3CCCC3)n2)cc1
584 | CC(Oc1ccccc1)C(=O)N1CC(n2ccnc2)C1 (stereo not given)
1060 | O=C(Cc1cc(-c2cc3ccccc3o2)on1)NCCC1=CCCCC1
821 | CC(C)Oc1ccc(CNC(=O)C2CCN(S(=O)(=O)c3ccc4c(c3)NC(=O)CO4)CC2)cc1
771 | O=C(C1CCOC1)N1CCCn2nc(-c3cccc(Cl)c3)cc2C1 (stereo not given)
603 | CCOC(=O)c1noc2ncnc(NCC3CCN(Cc4cccc(Cl)c4)CC3)c12
852 | CC(Oc1ccccc1)c1nc(-c2ccc3c(c2)nnn3CCC(=O)N2CCOCC2)no1 (stereo not given)
762 | CCN1C(=O)c2c(C(=O)NCc3cccc(F)c3)ncn2CC1(C)C(=O)NC1CCCC1 (stereo not given)
829 | CCC(C)c1ccccc1NC(=O)C1CCN(C(=O)C(C)(C)C)CC1 (stereo not given)
765 | Cc1cccc(NC(=O)C(C)n2cnc3nc4c(cc3c2=O)CCCC4)c1C (stereo not given)
779 | CC(C)c1ccc(NC(=O)Cn2nc3n(c2=O)CCCCC3)cc1
703 | Cc1noc2nc(CCC(=O)NCCCN3CCc4ccccc4C3)nc(N3CCC(C)CC3)c12
637 | CNC(=O)C1CC(=O)N(c2cccc(C)c2)C1 (stereo not given)
756 | COc1cccc(S(=O)(=O)N2CCC(c3cc(N)on3)CC2)c1
